Values quoted from earlier work, collected in patent US7381426B2, “Targeted delivery of bioactive factors to the systemic skeleton” (Southwest Research Institute, priority 2002, dated 2008).

System: hindlimb unloading in rats
Conditions: infusion 2 μg/kg/day, hindlimb unloaded rats

## TGF-β
  effect on unloading-induced bone changes: corrects the decrease in bone mass, calcium content, osteoblast number and mineralization rate
